In US20110124888A1, “STYRYLBENZOFURAN DERIVATIVES AS INHIBITORS FOR BETA-AMYLOID FIBRIL FORMATION AND PREPARATION METHOD THEREOF” (Korea Institute of Science and Technology, priority 2008, published 2011):
Counter-ions that a name gives are not always drawn. Like-named read-outs stand apart in the source and are kept apart here. Each block holds one molecule with its values, some of them ahead of it.

Target: T1, beta-amyloid 42 (Aβ42) (Homo sapiens, UniProt P05067)
T1 construct: Beta-amyloid 42 (Aβ42) was dissolved in dimethylsulfoxide (DMSO)
Experiment: Inhibitory effect on the formation of beta-amyloid fibrils in vitro (ThT fluorescence assay)
Format: biochemical
Details: for inhibition at 10 µM: read-out: % Inhibition (10 μM); for IC50: In vitro ThT analysis (Aβ42: 25 μM); for % inhibition against the beta-amyloid 42 formation compared with curcumin: Tables 1 to 6, relative to curcumin
Method: In order to investigate the inhibitory effect on the formation of beta-amyloid fibrils, the inventive compounds were examined as follows:
Beta-amyloid 42 (Aβ42) was dissolved in dimethylsulfoxide (DMSO) to form a […] Aβ42 stock solution. In addition, ThT (thioflavin T) was dissolved in distilled water to a concentration of 1 mM and subsequently diluted with 50 mM glycin buffer (pH 8.5) to yield a 5 μM ThT stock solution.
45 μL of PBS (phosphate buffer saline, pH 7.4) was added to each of a 96 well fluorescence microplate (white, F-bottom). 5 μL of the 250 μM Aβ42 stock solution was added to each well. The final concentration of each compound obtained in Examples was in a range of 10 to 0.001 μM by adding 2 μL of a solution, which is prepared by dissolving the subject compounds obtained in Examples in DMSO, to each well. At this time, the final concentration of Aβ42 in each well was 25 μM. The plate was then incubated at room temperature for 1 hr, and 150 μL of the 5 μM ThT stock solution was added to each well.
The fluorescence intensity of each well was determined with the multi label fluorescence counter (LS-55 Luminescence spectrometer, Perkin Elmer) at an excitation wavelength of 450 nm (excitation slit width: 10 nm) and an emission wavelength of 482 nm (emission slit width: 10 nm), while adjusting counting time to 1 second. The control group was prepared by adding PBS solution, Aβ42 and DMSO, without adding the inventive compound. % Inhibition on the formation of beta-amyloid fibrils was calculated in accordance with the following equation and IC5O was calculated by using GraphPad Prism version 4.03 Program.
% Inhibition=[1−(C−D)/(A−B)]×100 Equation 1%
A (control group): fluorescence intensity in a group treated with PBS solution, Aβ42, and DMSO
B (blank): fluorescence intensity in a group treated with PBS solution and DMSO
C (experimental group): fluorescence intensity in a group treated with PBS solution, Aβ42, DMSO, and the inventive compound
D (compensation value to the experimental group): fluorescence intensity in a group treated with PBS solution, DMSO, and the inventive compound

[1] = 10 μM compound, Aβ42 25 μM, experiment of Table 6
[2] = 10 μM compound, Aβ42 25 μM, experiment of Table 5
[3] = 10 μM compound, Aβ42 25 μM, experiment of Table 2
[4] = 10 μM compound, Aβ42 25 μM, experiment of Table 4

T1 sequence (P05067 672-713 limits assumed): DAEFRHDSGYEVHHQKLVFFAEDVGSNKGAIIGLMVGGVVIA

IC50 (experiment of Table 1): 528 nM
% inhibition against the beta-amyloid 42 formation compared with curcumin: superior % inhibition
SMILES: COc1ccc2cc(C=Cc3ccc(N(C)C)c(OC)c3)oc2c1 [Compound 23, 6-methoxy-2-(3-methoxy-4-dimethylaminostyryl)benzofuran]

IC50 (experiment of Table 1): 810 nM
SMILES: COc1ccc2oc(C=Cc3ccc(N(C)C)cc3)cc2c1 [Compound 2, 5-Methoxy-2-(4-dimethylaminostyryl)benzofuran]

IC50 (experiment of Table 1): 3620 nM
SMILES: CN(C)c1ccc(C=Cc2cc3ccc(O)cc3o2)cc1 [Compound 10, 6-hydroxy-2-(4-dimethylaminostyryl)benzofuran]

inhibition at 10 µM [2]: 60.2%
SMILES: Nc1ccc(C=Cc2cc3ccc(O)cc3o2)cc1 [Compound 67, 6-hydroxy-2-(4-aminostyryl)benzofuran]

inhibition at 10 µM [1]: 61%
IC50 (experiment of Table 6): 1770 nM
% inhibition against the beta-amyloid 42 formation compared with curcumin: superior % inhibition
SMILES: CNc1ccc(C=Cc2cc3cc(I)ccc3o2)cc1 [Compound 46, 5-iodo-2-(4-methylaminostyryl)benzofuran]

IC50 (experiment of Table 1): 199 nM
% inhibition against the beta-amyloid 42 formation compared with curcumin: superior % inhibition
SMILES: CN(C)c1ccc(C=Cc2cc3cc(Cl)ccc3o2)cc1 [Compound 6, 5-chloro-2-(4-dimethylaminostyryl)benzofuran]

inhibition at 10 µM [3]: 51.8%
IC50 (experiment of Table 2): > 100000 nM
SMILES: COc1ccc(C=Cc2cc3cc(Cl)ccc3o2)cc1 [Compound 33, 5-chloro-2-(4-methoxystyryl)benzofuran]

inhibition at 10 µM [1]: 77.8%
IC50 (experiment of Table 6): 903 nM
% inhibition against the beta-amyloid 42 formation compared with curcumin: superior % inhibition
SMILES: COc1ccc(C=Cc2cc3cc(OC)c(OC)cc3o2)cc1 [Compound 54, 5,6-dimethoxy-2-(4-methoxystyryl)benzofuran]

inhibition at 10 µM [3]: 81.6%
IC50 (experiment of Table 2): 1300 nM
% inhibition against the beta-amyloid 42 formation compared with curcumin: superior % inhibition
SMILES: CCN(CC)c1ccc(C=Cc2cc3cc(O)ccc3o2)cc1 [Compound 56, 5-hydroxy-2-(4-diethylaminostyryl)benzofuran]

IC50 (experiment of Table 1): 3210 nM
SMILES: CN(C)c1ccc(C=Cc2cc3ccc(Cl)cc3o2)cc1 [Compound 13, 6-chloro-2-(4-dimethylaminostyryl)benzofuran]

The remaining lines, values behind:

SMILES: COc1ccc2cc(/C=C/c3ccc(N(C)C)cc3)oc2c1 [hydrochloride of Ex. 9]
inhibition at 10 µM [1]: 62.9%
IC50 (experiment of Table 6): 1880 nM
% inhibition against the beta-amyloid 42 formation compared with curcumin: superior % inhibition

SMILES: CCN(CC)c1ccc(C=Cc2cc3ccc(O)cc3o2)cc1 [Compound 69, 6-hydroxy-2-(4-diethylaminostyryl)benzofuran]
inhibition at 10 µM [2]: 42.2%

SMILES: COc1ccc(C=Cc2cc3cc(C)ccc3o2)cc1 [Compound 42, 5-methyl-2-(4-methoxystyryl)benzofuran]
inhibition at 10 µM [3]: 69.7%
IC50 (experiment of Table 2): 15900 nM

SMILES: COc1ccc(C=Cc2cc3cc(OC)ccc3o2)cc1 [Compound 37, 5-methoxy-2-(4-methoxystyryl)benzofuran]
inhibition at 10 µM [3]: 67.9%
IC50 (experiment of Table 2): 707 nM
% inhibition against the beta-amyloid 42 formation compared with curcumin: superior % inhibition

SMILES: CNc1ccc(C=Cc2cc3ccccc3o2)cc1 [Compound 25, 2-(4-methylaminostyryl)benzofuran trifluoroacetate]
inhibition at 10 µM: 59%

SMILES: CN(C)c1ccc(C=Cc2cc3ccccc3o2)cc1 [Compound 1, 2-(4-dimethylaminostyryl)benzofuran]
IC50 (experiment of Table 1): 2300 nM

SMILES: COc1ccc(C=Cc2cc3ccc(C)cc3o2)cc1OC [Compound 65, 6-methyl-2-(3,4-dimethoxystyryl)benzofuran]
inhibition at 10 µM [2]: 67.5%
IC50 (experiment of Table 5): 884 nM
% inhibition against the beta-amyloid 42 formation compared with curcumin: superior % inhibition

SMILES: CNc1ccc(C=Cc2cc3ccc(OCCOCCOCCF)cc3o2)cc1 [Compound 66, 6-(2-(2-(2-fluoroethoxy)ethoxy)ethoxy)-2-(4-methylaminostyryl)benzofuran]
inhibition at 10 µM [2]: 61.7%

SMILES: CN(C)c1ccc(C=Cc2cc3ccc(I)cc3o2)cc1 [Compound 15, 6-iodo-2-(4-dimethylaminostyryl)benzofuran]
IC50 (experiment of Table 1): 2800 nM

SMILES: COc1ccc(C=Cc2cc3cc(I)ccc3o2)cc1 [Compound 49, 5-iodo-2-(4-methoxystyryl)benzofuran]
inhibition at 10 µM [4]: 38%
IC50 (experiment of Table 4): 16800 nM

SMILES: COc1ccc(C=Cc2cc3cc(C)ccc3o2)cc1OC [Compound 43, 5-methyl-2-(3,4-dimethoxystyryl)benzofuran]
inhibition at 10 µM [3]: 69.4%
IC50 (experiment of Table 2): 10500 nM

SMILES: CNc1ccc(/C=C/c2cc3cc(OC)ccc3o2)cc1 [hydrochloride of Ex. 17]
inhibition at 10 µM [1]: 74.1%
IC50 (experiment of Table 6): 661 nM
% inhibition against the beta-amyloid 42 formation compared with curcumin: superior % inhibition

SMILES: CN(C)c1ccc(C=Cc2cc3cc(Br)ccc3o2)cc1 [Compound 7, 5-bromo-2-(4-dimethylaminostyryl)benzofuran]
IC50 (experiment of Table 1): 470 nM
% inhibition against the beta-amyloid 42 formation compared with curcumin: superior % inhibition

SMILES: COc1ccc2oc(C=Cc3ccc(N)cc3)cc2c1 [Compound 16, 5-methoxy-2-(4-aminostyryl)benzofuran]
IC50 (experiment of Table 1): 820 nM

SMILES: CCN(CC)c1ccc(C=Cc2cc3cc(OC)c(OC)cc3o2)cc1 [Compound 52, 5,6-dimethoxy-2-(4-diethylaminostyryl)benzofuran]
inhibition at 10 µM [2]: 42.3%

SMILES: CCN(CC)c1ccc(C=Cc2cc3cc(Cl)ccc3o2)cc1 [Compound 31, 5-chloro-2-(4-diethylaminostyryl)benzofuran]
inhibition at 10 µM [4]: 37.9%
IC50 (experiment of Table 4): 963 nM

SMILES: CNc1ccc(C=Cc2cc3cc(OC)c(OC)cc3o2)cc1OC [Compound 53, 5,6-dimethoxy-2-(3-methoxy-4-methylaminostyryl)benzofuran]
inhibition at 10 µM [2]: 56.2%
